Laboratory results published in article PMC6934184, “Selective DNA-PKcs inhibition extends the therapeutic index of localized radiotherapy and chemotherapy” (The Journal of Clinical Investigation, 2019).

Target: T1, ABL1 H396P (Homo sapiens, UniProt P00519, H396P)
T1 construct: purchased Thermo Fisher Scientific (Life Technologies) SelectScreen
Test: SelectScreen LanthaScreen
Assay type: binding
Conditions: read-out: % displacement
Summary of the method: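 Percent values come from Thermo SelectScreen profiling of NU5455, combining activity and binding assays. CSF1R was run in Z'LYTE format at Km app ATP, and CAMK1 in Adapta format with ATP listed at 10.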

CN(C(=O)CN1CCOCC1)c1ccc2sc3c(-c4cccc5c(=O)cc(N6CC7CCC(C6)O7)oc45)cccc3c2c1 [NU5455]
inhibition at 1 µM: 0.6%
